# Laboratory results: paper PMC9413508, “PI3K/mTOR Dual Inhibitor Pictilisib Stably Binds to Site I of Human Serum Albumin as Observed by Computer Simulation, Multispectroscopic, and Microscopic Studies” (Molecules, 2022)
# Target: T1, human serum albumin (HSA) (Homo sapiens, UniProt P02768)
# T1 construct: gene ALB; fatty-acid-free HSA, commercial (Sigma-Aldrich); mature protein, 585 residues, monomer
# Test: intrinsic Trp fluorescence quenching, double-log plot
# Type: binding
# Details: 298 K, pH 7.4 PBS 10 mM, HSA 2 μM; λex 280 nm; n = 1.14; site I (subdomain IIA)
# Protocol: intrinsic Trp fluorescence quenching, double-log plot on human serum albumin (HSA) | the association constant (Ka) between GDC-0941 and HSA was calculated
# T1 sequence (P02768 25-609): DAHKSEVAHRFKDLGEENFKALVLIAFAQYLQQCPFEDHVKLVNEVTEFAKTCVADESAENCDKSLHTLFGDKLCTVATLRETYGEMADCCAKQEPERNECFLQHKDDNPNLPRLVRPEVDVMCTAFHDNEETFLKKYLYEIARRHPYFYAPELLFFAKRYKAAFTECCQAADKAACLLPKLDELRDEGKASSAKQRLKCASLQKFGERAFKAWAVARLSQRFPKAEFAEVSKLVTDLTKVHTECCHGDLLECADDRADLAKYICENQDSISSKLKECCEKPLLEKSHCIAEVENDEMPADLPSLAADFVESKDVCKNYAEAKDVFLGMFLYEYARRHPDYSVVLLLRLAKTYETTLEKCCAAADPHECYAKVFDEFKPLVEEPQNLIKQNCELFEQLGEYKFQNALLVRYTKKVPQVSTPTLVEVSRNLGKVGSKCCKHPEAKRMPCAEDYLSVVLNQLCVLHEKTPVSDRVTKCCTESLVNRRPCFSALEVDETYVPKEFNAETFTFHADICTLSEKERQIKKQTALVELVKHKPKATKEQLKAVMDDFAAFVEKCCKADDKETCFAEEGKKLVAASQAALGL
smiles,measurement,value
CS(=O)(=O)N1CCN(Cc2cc3nc(-c4cccc5[nH]ncc45)nc(N4CCOCC4)c3s2)CC1 [GDC-0941],Ka (×10^5 M^-1),4.09 ×10^5 M^−1
